Source: patent US20180353445A1, “METHODS AND COMPOSITIONS RELATING TO PROTEASOME INHIBITOR RESISTANCE” (Whitehead Institute for Biomedical Research, priority 2017, published 2018)

Legend:
[1] = system: T47D cells; test: Combination of ABT-263 or ABT-199 with proteasome inhibitors, T47D cells with reduced PSMD2; type: cell-based, human; details: T47D cells with reduced PSMD2, 72 hours
Description: FIG. 18: Plots showing effect of various concentrations of ABT-263 (upper panels) or ABT-199 (lower panels) in combination with various concentrations of ixazomib un viability of T47D cells with reduced expression of PSMD2 (KB) (right panels) or control cells (left panels). Fold viability refers to the number of viable cells of the indicated type (PSMD2 KD or control cells) after culture in the presence of the test compounds (ixazomib +ABT-263 or ixazomib +ABT-199) divided by the number of viable cells of that type after culture in the absence of the test compounds. The concentrations of ABT-263 or ABT-199 tested are shown in the legend on the right side of each panel. If no concentration is listed, the compound was absent. Fold viability of control cells cultured in the presence of ixazomib alone (i.e., in the absence ABT-263 or ABT-199) is also shown in the panels showing effect of ixazomib +ABT-263 or ixazomib +ABT-199 on PSMD2 KD cells. […]
FIGS. 21A-21C: (FIG. 21A) Plot showing synergy of ABT-263 with ixazomib in T47D cells with reduced expression of PSMD2. […] The y-axis on each plot is the calculated EC50 in micromoles for either ixazomib or bortezomib in the presence of sublethal doses of ABT-263 or A.BT-199 as indicated. Compounds were added to the cells at the same time and cell viability was measured 72 hours later.

[2] = system: IMR32 (reduced PSMD5) and Kelly neuroblastoma cells; test: Viability of IMR32 versus Kelly neuroblastoma cells (CellTiter-Glo); type: cell-based, human; details: other experiments, e.g., 0.1 uM
[3] = molecular target: T1, cysteine desulfurase (Homo sapiens, UniProt Q9Y697); test: Cysteine desulfurase activity assay; type: biochemical
T1 construct: made in house
T1 sequence (Q9Y697 56-457): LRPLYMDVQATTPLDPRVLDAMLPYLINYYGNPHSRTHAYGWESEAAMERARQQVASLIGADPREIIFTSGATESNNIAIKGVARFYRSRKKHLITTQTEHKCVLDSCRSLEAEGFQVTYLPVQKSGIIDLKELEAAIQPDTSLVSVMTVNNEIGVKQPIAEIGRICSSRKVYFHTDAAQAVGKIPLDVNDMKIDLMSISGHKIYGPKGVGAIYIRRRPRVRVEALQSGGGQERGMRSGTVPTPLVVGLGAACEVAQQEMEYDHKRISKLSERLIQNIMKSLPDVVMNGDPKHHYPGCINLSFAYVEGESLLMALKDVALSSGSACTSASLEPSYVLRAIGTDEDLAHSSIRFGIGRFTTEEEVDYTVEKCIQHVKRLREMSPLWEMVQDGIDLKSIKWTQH
T1 sequence (Q9HD34 whole entry, further chain): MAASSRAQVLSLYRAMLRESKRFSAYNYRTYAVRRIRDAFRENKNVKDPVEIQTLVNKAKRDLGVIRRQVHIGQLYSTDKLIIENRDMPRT
T1 sequence (P0A6A8 2-78, further chain): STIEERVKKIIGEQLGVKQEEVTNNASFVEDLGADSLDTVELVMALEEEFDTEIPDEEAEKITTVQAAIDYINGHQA
Protocol: The in vitro Fe—S cluster assembly was carried out with reduced FDX1 as the reducing agent and detected by following the increase of absorbance at 456 tun following the addition of either of 5× (green) or 10× (yellow, both relative to FDX1) compound-1. […] Fe—S formation was monitored by following the increase of absorbance at 456 nm. […] Cysteine desulfurase activity assay carried out with the indicated concentrations of elesclomol.

[4] = system: MM.1S tumors; test: MM.1S luciferase multiple myeloma model in SCID mice; type: in vivo, mouse; details: elesclomol 28mg/kg with bortezomib 0.25mg/kg
Protocol: FIGS. 54A-54D: Inhibiting the glycolysis-OXPHOS shift with elesclomol is beneficial to proteasome inhibitor treatment in a mouse model of multiple myeloma. (FIG. 54A) provides a schematic of the experimental outline. Mice were injected with MM .'S luciferase expressing cells. Upon tumor formation as judged by BLI signal intensity, treatment with elesclomol (28mg/kg), bortezomib (0.25mg/kg) or the combination (Combo) was initiated (day 0). At day 15, elesclomol was added to the treatment of one of the aroups that had received only bortezomib from day 0 to day 15 (combo-delayed group). […] N=5 per aroup. *** p<0.001.
FIGS. 60A-60B: Inhibiting the glycolysis-OXPHOS shift, with elesclomol is beneficial to proteasome inhibitor treatment in a mouse model of multiple myeloma.

[5] = molecular target: T2, cysteine desulfurase (NFS1-ISD11-Acp)2 (SDA) (Homo sapiens, UniProt Q9Y697); test: Cysteine desulfurase assay (DTT as the reductant); type: biochemical
T2 construct: made in house
T2 sequence (Q9Y697 56-457): as the sequence (Q9Y697 56-457) above
T2 sequence (P0A6A8 2-78, further chain): as the sequence (P0A6A8 2-78, further chain) above
T2 sequence (Q9HD34 whole entry, further chain): as the sequence (Q9HD34 whole entry, further chain) above
Description: Fe—S clusters are generated from sulfur extracted from cysteine by the iron sulfur-cluster (ISC) core complex (NFS1-ISD11-Acp-ISCU)2 and iron. A reductant (FDX1 or FDX2) is required for Fc-S cluster biosynthesis (Lill and Muhlenhoff, 2006; Py and Barras, 2010) (FIG. 53A). To investigate the effect of elesclomol on mitochondrial Fe—S cluster biosynthesis, we utilized in vitro Fe—S cluster assembly assays. […] As further confirmation, we examined the effect of elesclomol on electron transfer from reduced FDX1 to the ISC core complex upon the addition of cysteine.
Cysteine desulfurase assay—The protein samples used in the nisteine desulfurase assay and Fe—S cluster assembly experiments were prepared in an anaerobic chamber (Coy Laboratory) with samples buffer-exchanged extensively prior to the experiments with anaerobic buffer containing 20 mM HEPES at pH 7.6 and 150 mM NaCl (HN buffer). The reaction volumes in all the experiments were kept to […]. […]
The cysteine desulfurase assay reactions (300 μL in HN buffer) contained 10 μM SDA. […] The quenched reaction was incubated for 15 min at room temperature, and then the absorbance at 670 nm was measured and used to estimate the amount of sulfide by comparison to a standard curve obtained from known concentrations of Na2S.

Structure (SMILES)	combination effect with bortezomib [1]	combination effect with ixazomib [1]	toxicity at lower concentrations than 1 uM [2]	activity of cysteine desulfurase [3]	effect on proteasome inhibitor treatment in a mouse model of multiple myeloma [4]	effect on cysteine desulfurase activity [5]
CC1(C)CCC(c2ccc(Cl)cc2)=C(CN2CCN(c3ccc(C(=O)NS(=O)(=O)c4ccc(N[C@H](CCN5CCOCC5)CSc5ccccc5)c(S(=O)(=O)C(F)(F)F)c4)cc3)CC2)C1 [ABT-263, navitoclax]	synergy	synergy	a similar level of toxicity was observed	–	–	–
CN(NC(=O)CC(=O)NN(C)C(=S)c1ccccc1)C(=S)c1ccccc1 [elesclomol]	–	–	–	does not inhibit	beneficial	no inhibitory effect
